# From patent publication US20060069132A1, “Azolecarboxamide herbicides” (priority 2004, published 2006)
# Experiments:
# ducksalad = test: Test B flooded paddy test; type: in vivo, Heteranthera limosa; conditions: 1000 g ai/ha, scale 0 to 100 (0 no effect, 100 complete control)
# In short: (§1)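 Postemergence plants were sprayed with formulated test chemicals at 2 to 18 cm height (1- to 4-leaf stage); paddy species were grown to the 2-leaf stage. After 13 to 15 days in a greenhouse, injury was rated visually against untreated controls on a 0–100 scale (0 = no effect, 100 = complete control).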
# wild oat = test: Test B postemergence herbicide test; type: in vivo, Avena fatua; conditions: postemergence
# In short: (§2)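 Scale 0–100: zero equals no visible effect, 100 complete control, judged by eye relative to controls. Timing: 13 to 15 days in greenhouse post-treatment. Growth stage at spraying: two leaves (paddy) or one to four leaves, 2–18 cm (postemergence).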
# cocklebur = test: Test B pre-/postemergence herbicide test; type: in vivo, Xanthium strumarium; conditions: for Plant response rating (0 to 100 scale), Cocklebur: 0 is no effect; for Cocklebur plant response rating: postemergence
# In short: (§3)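 Seeds were planted and treated preemergence with compounds formulated in a non-phytotoxic solvent mixture containing surfactant, while plants at the 1- to 4-leaf stage (2 to 18 cm) received postemergence sprays. Flooded paddy plants were grown to the 2-leaf stage. After 13 to 15 days in a greenhouse, injury was visually rated 0–100 against untreated controls.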
# morningglory = test: Test B pre-/postemergence herbicide test; type: in vivo, Ipomoea coccinea; conditions: for Plant response rating (0 to 100 scale), Morningglory: 0 is no effect, 100 is complete control; for Morningglory plant response rating: postemergence
# In short: as §3
# large crabgrass = test: Test B pre-/postemergence herbicide test; type: in vivo, Digitaria sanguinalis; conditions: for Plant response rating (0 to 100 scale), Crabgrass, Large: 0 is no effect; for Crabgrass, Large plant response rating: postemergence
# In short: (§4)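 Flooded paddy rice and barnyardgrass were treated at the 2-leaf stage; upland plantings received compound either on sown seed or on 1- to 4-leaf seedlings. All were kept 13–15 days in a greenhouse and scored visually, 0–100, relative to untreated plants.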
# [1] = system: small flower umbrella sedge; test: Test B flooded paddy test; type: in vivo, Cyperus difformis; conditions: 1000 g ai/ha, scale 0 to 100 (0 no effect, 100 complete control)
# In short: as §1
# pigweed = test: Test B pre-/postemergence herbicide test; type: in vivo, Amaranthus retroflexus; conditions: for Plant response rating (0 to 100 scale), Pigweed: 0 is no effect; for Pigweed plant response rating: postemergence
# In short: as §4
# barnyardgrass [2] = test: Test B pre-/postemergence herbicide test; type: in vivo, Echinochloa crus-galli; conditions: for Plant response rating (0 to 100 scale), Barnyardgrass: 0 is no effect; for Barnyardgrass plant response rating: postemergence
# In short: as §3
# wheat = test: Test B postemergence herbicide test; type: in vivo, Triticum aestivum; set-up: key to Wheat plant response rating: 0 = no effect, 100 = complete control; conditions: postemergence
# In short: as §2
# lambsquarters = test: Test B pre-/postemergence herbicide test; type: in vivo, Chenopodium album; conditions: for Plant response rating (0 to 100 scale), Lambsquarters: 0 is no effect; for Lambsquarters plant response rating: postemergence
# In short: as §4
# velvetleaf = test: Test B pre-/postemergence herbicide test; type: in vivo, Abutilon theophrasti; conditions: for Plant response rating (0 to 100 scale), Velvetleaf: 0 is no effect, preemergence; for Velvetleaf plant response rating: postemergence
# In short: as §4
# blackgrass = test: Test B postemergence herbicide test; type: in vivo, Alopecurus myosuroides; conditions: postemergence
# In short: as §1
# barnyardgrass [3] = test: Test B flooded paddy test; type: in vivo, Echinochloa crus-galli; conditions: 1000 g ai/ha, scale 0 to 100 (0 no effect, 100 complete control)
# In short: as §1
# Surinam grass = test: Test B pre-/postemergence herbicide test; type: in vivo, Urochloa decumbens; conditions: for Plant response rating (0 to 100 scale), Surinam Grass: 0 is no effect; for Surinam Grass plant response rating: postemergence
# In short: as §4
# giant foxtail = test: Test B pre-/postemergence herbicide test; type: in vivo, Setaria faberi; conditions: for Plant response rating (0 to 100 scale), Foxtail, Giant: 0 is no effect; for Foxtail, Giant plant response rating: postemergence
# In short: as §4
# rice = test: Test B flooded paddy test; type: in vivo, Oryza sativa; conditions: 1000 g ai/ha, scale 0 to 100 (0 no effect, 100 complete control)
# In short: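 After treating 2-leaf paddy plants or 2–18 cm postemergence plants (1 to 4 leaves) with formulated chemical, researchers kept them in a greenhouse for 13–15 days. Effects were judged visually versus controls: 0 indicates none, 100 total control.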
# corn = test: Test B pre-/postemergence herbicide test; type: in vivo, Zea mays; conditions: for Plant response rating (0 to 100 scale), Corn: 0 is no effect; for Corn plant response rating: postemergence
# In short: as §4
# [4] = 125 g ai/ha, visual rating, scale 0 (no effect) to 100 (complete control)
# [5] = 125 g ai/ha, 100 is complete control, preemergence
# [6] = 125 g ai/ha, 100 is complete control
# [7] = 500 g ai/ha, scale 0 to 100, 0 is no effect, 100 is complete control
# [8] = 500 g ai/ha, visual rating, 0 = no effect, 100 = complete control, preemergence
smiles,measurement,setting,value
CCOC(=O)c1ccc(F)c(NC(=S)c2cc(C(C)(C)C)nn2CC)c1 [Compound 346],Ducksalad plant response rating,ducksalad,60
same,"Oat, Wild plant response rating",wild oat; [4],40
same,"Oat, Wild plant response rating","wild oat; 31 g ai/ha, scale 0 to 100",30
same,"Plant response rating (0 to 100 scale), Cocklebur",cocklebur; [5],0
same,Cocklebur plant response rating,cocklebur; [4],30
same,Cocklebur plant response rating,"cocklebur; 31 g ai/ha, scale 0 to 100",10
same,"Plant response rating (0 to 100 scale), Morningglory","morningglory; 125 g ai/ha, preemergence",0
same,Morningglory plant response rating,morningglory; [4],10
same,Morningglory plant response rating,"morningglory; 31 g ai/ha, scale 0 to 100",0
same,"Plant response rating (0 to 100 scale), Crabgrass, Large",large crabgrass; [5],60
same,"Crabgrass, Large plant response rating",large crabgrass; [4],0
same,"Crabgrass, Large plant response rating","large crabgrass; 31 g ai/ha, scale 0 to 100",0
same,"Sedge, Umbrella plant response rating",[1],80
same,"Plant response rating (0 to 100 scale), Pigweed",pigweed; [5],0
same,Pigweed plant response rating,pigweed; [4],70
same,Pigweed plant response rating,"pigweed; 31 g ai/ha, scale 0 to 100",60
same,"Plant response rating (0 to 100 scale), Barnyardgrass",barnyardgrass [2]; [5],0
same,Barnyardgrass plant response rating,barnyardgrass [2]; [4],20
same,Barnyardgrass plant response rating,"barnyardgrass [2]; 31 g ai/ha, scale 0 to 100",0
same,Wheat plant response rating,wheat; [4],20
same,Wheat plant response rating,"wheat; 31 g ai/ha, scale 0 to 100",10
same,"Plant response rating (0 to 100 scale), Lambsquarters",lambsquarters; [5],0
same,Lambsquarters plant response rating,lambsquarters; [4],30
same,Lambsquarters plant response rating,"lambsquarters; 31 g ai/ha, scale 0 to 100",0
same,"Plant response rating (0 to 100 scale), Velvetleaf",velvetleaf; [6],0
same,Velvetleaf plant response rating,velvetleaf; [4],10
same,Velvetleaf plant response rating,"velvetleaf; 31 g ai/ha, scale 0 to 100",0
same,Blackgrass plant response rating,blackgrass; [4],40
same,Blackgrass plant response rating,"blackgrass; 31 g ai/ha, scale 0 to 100",30
same,Barnyardgrass plant response rating,barnyardgrass [3],40
same,"Plant response rating (0 to 100 scale), Surinam Grass",Surinam grass; [5],10
same,Surinam Grass plant response rating,Surinam grass; [4],10
same,Surinam Grass plant response rating,"Surinam grass; 31 g ai/ha, scale 0 to 100",0
same,"Plant response rating (0 to 100 scale), Foxtail, Giant",giant foxtail; [5],50
same,"Foxtail, Giant plant response rating",giant foxtail; [4],20
same,"Foxtail, Giant plant response rating","giant foxtail; 31 g ai/ha, scale 0 to 100",0
same,Rice plant response rating,rice,40
same,"Plant response rating (0 to 100 scale), Corn",corn; [5],0
same,Corn plant response rating,corn; [4],0
same,Corn plant response rating,"corn; 31 g ai/ha, scale 0 to 100",0
CCn1nc(C(C)(C)C)cc1C(=O)Nc1cc(OCCF)ccc1F [Compound 350],Ducksalad plant response rating,ducksalad,0
same,"Oat, Wild plant response rating",wild oat; [4],0
same,"Oat, Wild plant response rating",wild oat; [7],0
same,"Plant response rating (0 to 100 scale), Cocklebur",cocklebur; [5],0
same,Cocklebur plant response rating,cocklebur; [4],0
same,"Plant response rating, Cocklebur",cocklebur; [8],0
same,Cocklebur plant response rating,cocklebur; [7],20
same,"Plant response rating (0 to 100 scale), Morningglory","morningglory; 125 g ai/ha, preemergence",0
same,Morningglory plant response rating,morningglory; [4],0
same,"Plant response rating, Morningglory",morningglory; [8],0
same,"Plant response rating (0 to 100 scale), Crabgrass, Large",large crabgrass; [5],0
same,"Crabgrass, Large plant response rating",large crabgrass; [4],0
same,"Plant response rating, Crabgrass, Large",large crabgrass; [8],0
same,"Crabgrass, Large plant response rating",large crabgrass; [7],10
same,"Sedge, Umbrella plant response rating",[1],0
same,"Plant response rating (0 to 100 scale), Pigweed",pigweed; [5],0
same,Pigweed plant response rating,pigweed; [4],0
same,"Plant response rating, Pigweed",pigweed; [8],0
same,Pigweed plant response rating,pigweed; [7],60
same,"Plant response rating (0 to 100 scale), Barnyardgrass",barnyardgrass [2]; [5],0
same,Barnyardgrass plant response rating,barnyardgrass [2]; [4],0
same,"Plant response rating, Barnyardgrass",barnyardgrass [2]; [8],0
same,Barnyardgrass plant response rating,barnyardgrass [2]; [7],0
same,Wheat plant response rating,wheat; [4],0
same,Wheat plant response rating,wheat; [7],0
same,"Plant response rating (0 to 100 scale), Lambsquarters",lambsquarters; [5],0
same,Lambsquarters plant response rating,lambsquarters; [4],0
same,"Plant response rating, Lambsquarters",lambsquarters; [8],0
same,Lambsquarters plant response rating,lambsquarters; [7],10
same,"Plant response rating (0 to 100 scale), Velvetleaf",velvetleaf; [6],0
same,Velvetleaf plant response rating,velvetleaf; [4],0
same,Velvetleaf plant response rating,velvetleaf; [7],10
same,Blackgrass plant response rating,blackgrass; [4],0
same,Blackgrass plant response rating,blackgrass; [7],0
same,Barnyardgrass plant response rating,barnyardgrass [3],0
same,"Plant response rating (0 to 100 scale), Surinam Grass",Surinam grass; [5],0
same,Surinam Grass plant response rating,Surinam grass; [4],0
same,"Plant response rating, Surinam Grass",Surinam grass; [8],0
same,Surinam Grass plant response rating,Surinam grass; [7],10
same,"Plant response rating (0 to 100 scale), Foxtail, Giant",giant foxtail; [5],0
same,"Foxtail, Giant plant response rating",giant foxtail; [4],0
same,"Plant response rating, Foxtail, Giant",giant foxtail; [8],0
same,"Foxtail, Giant plant response rating",giant foxtail; [7],30
same,Rice plant response rating,rice,0
same,"Plant response rating (0 to 100 scale), Corn",corn; [5],0
same,Corn plant response rating,corn; [4],0
same,"Plant response rating, Corn",corn; [8],0
same,Corn plant response rating,corn; [7],20
